Test results published in patent US20150202311A1, “Collagen-peptide complex” (Q'SAI CO., LTD., priority 2013, published 2015).

Legend:
collagen peptide [1] = assay: Coprecipitation of black tea components with collagen peptide, reverse-phase chromatography; type: binding, pig; conditions: black tea A 200 ml + collagen peptide 5 g, FIG. 7B
Method: (§1) Collagen peptide (dry powder of the pig skin-derived collagen hydrolysate, the average molecular weight: 3000-5000, manufactured by Nippi, Inc.) was dissolved in water so that the specified concentration is achieved.
To black tea A (200 ml), collagen peptide (5 g) was added and mixed; the supernatant and precipitate were separated by centrifuging (10,000×g, for 10 minutes) (Example 6). To determine the components, of the black tea A before the addition of the collagen peptide (FIG. 7A), the supernatant after centrifuging (FIG. 7B), and the precipitate solubilized with SDS (FIG. 7C), were analyzed by reverse-phase chromatography (column: Cosmosil 5C18-AR-II (manufactured by Nacalai Tesque, Inc.), mobile phase: 0.1% formic acid-containing acetonitrile, detection: 215 nm, 280 nm), respectively.

collagen peptide [2] = assay: Complex formability of theaflavins and epicatechin with collagen peptide (total Hyp in supernatant / complex); type: binding, pig; conditions: catechin 0.2 μmol in 1 ml
Method: as §1
A supernatant was obtained by adding the triple volume (v/v) of ethanol to the aqueous solution and centrifuging (10,000×g, 15 min). The supernatant was hydrolyzed with hydrochloric acid (under reduced pressure, 150° C., and 1 hour). After the PITC treatment, the amount of PTC-Hyp (=the total amount of Hyp in the solution) was determined by carrying out reverse-phase chromatography (column: LiChroCART 250-4 (manufactured by Merck)). The amount of PTC-Hyp (=the amount of free Hyp) was determined by carrying out the PITC treatment/reverse-phase chromatography for the supernatant without hydrochloric acid hydrolysis.
The respective aqueous solutions of theaflavins and epicatechin (1 mg/ml) and collagen peptide aqueous solution (200 mg/ml) were prepared, and they were raised at room temperature so that the below-described contents are attained. In the test examples of the present patent application, the following reagents were used.
After mixing, the supernatant and precipitate were separated by centrifuging (8,000×g, […]). According to Method 4, the total amount of Hyp was determined for the supernatant (=“the total amount of Hyp in the supernatant”). “The total amount of Hyp in the complex” was calculated by subtracting “the total amount of Hyp in the supernatant” from the amount of collagen peptide used in the above reaction (2 mg or 10 mg).

With O=C(O[C@@H]1Cc2c(O)cc(O)cc2O[C@@H]1c1cc(O)c(O)c(O)c1)c1cc(O)c(O)c(O)c1 [epigallocatechin gallate] the “fate of black tea component in the supernatant after mixing with collagen peptide and centrifuging” value (“fate of black tea component” below) (collagen peptide [1]) was “remained mostly in the supernatant”.

For O=c1c(O)cc([C@H]2Oc3cc(O)cc(O)c3C[C@H]2O)cc2c([C@H]3Oc4cc(O)cc(O)c4C[C@H]3O)cc(O)c(O)c12 [Example 8, theaflavin], the “fate of black tea component” value (collagen peptide [1]) was “disappeared from the supernatant”, the “Total Hyp in the complex (%)” value (collagen peptide [2]; Collagen peptide 2 mg) was 86.5% and the “Total Hyp in the supernatant (%)” value (collagen peptide [2]; Collagen peptide 2 mg) was 13.5%. The “Total Hyp in the complex (%)” value (collagen peptide [2]; Collagen peptide 10 mg) was 83.8% and the “Total Hyp in the supernatant (%)” value (collagen peptide [2]; Collagen peptide 10 mg) was 16.2%.

Cn1c(=O)c2c(ncn2C)n(C)c1=O [caffeine] was tested, and the “fate of black tea component” value (collagen peptide [1]) was “remained mostly in the supernatant”.

For theaflavin-3,3′-digallate [Example 11], the “fate of black tea component” value (collagen peptide [1]) was “disappeared from the supernatant”, the “Total Hyp in the complex (%)” value (collagen peptide [2]; Collagen peptide 2 mg) was 98.0% and the “Total Hyp in the supernatant (%)” value (collagen peptide [2]; Collagen peptide 2 mg) was 2.0%. The “Total Hyp in the complex (%)” value (collagen peptide [2]; Collagen peptide 10 mg) was 97.8% and the “Total Hyp in the supernatant (%)” value (collagen peptide [2]; Collagen peptide 10 mg) was 2.2%.

theaflavin-3′-gallate [Example 10] was tested, and the “fate of black tea component” value (collagen peptide [1]) was “disappeared from the supernatant”, the “Total Hyp in the complex (%)” value (collagen peptide [2]; Collagen peptide 2 mg) was 97.7% and the “Total Hyp in the supernatant (%)” value (collagen peptide [2]; Collagen peptide 2 mg) was 2.3%. For the same compound, the “Total Hyp in the complex (%)” value (collagen peptide [2]; Collagen peptide 10 mg) was 90.5% and the “Total Hyp in the supernatant (%)” value (collagen peptide [2]; Collagen peptide 10 mg) was 9.5%.

In the case of O=C(O[C@@H]1Cc2c(O)cc(O)cc2O[C@@H]1c1ccc(O)c(O)c1)c1cc(O)c(O)c(O)c1 [epicatechin gallate], the “fate of black tea component” value (collagen peptide [1]) is reported as “remained mostly in the supernatant”.

With O=C(O[C@@H]1Cc2c(O)cc(O)cc2O[C@@H]1c1cc(=O)c(O)c2c(O)c(O)cc([C@H]3Oc4cc(O)cc(O)c4C[C@H]3O)c2c1)c1cc(O)c(O)c(O)c1 [Example 9, theaflavin-3-gallate] the “fate of black tea component” value (collagen peptide [1]) was “disappeared from the supernatant”, the “Total Hyp in the complex (%)” value (collagen peptide [2]; Collagen peptide 2 mg) was 87.0% and the “Total Hyp in the supernatant (%)” value (collagen peptide [2]; Collagen peptide 2 mg) was 13.0%. The “Total Hyp in the complex (%)” value (collagen peptide [2]; Collagen peptide 10 mg) was 86.6% and the “Total Hyp in the supernatant (%)” value (collagen peptide [2]; Collagen peptide 10 mg) was 13.4%.
